In US20110160399A1, “HISTONE MODIFICATION INHIBITOR SPECIFIC TO TARGET GENE” (NIHON UNIVERSITY, priority 2008, published 2011):
Entries after “also recorded” stand apart in the source; their conditions may differ.

Key:
[1] = system: histone deacetylase (HDAC); experiment: HDAC activity assay (HDAC Fluorimetric Assay/Drug Discovery Kit); type: biochemical, human; settings: HDAC-containing HeLa cell nuclear fraction, 37°C for 1 hour, various concentrations; FIG. 2
Method: To verify whether the activity of histone deacetylase (HDAC) was inhibited by compounds composed of the synthesized SAHA derivatives and polyamides attached to each other, an HDAC Fluorimetric Assay/Drug Discovery Kit (BIOMOL international) was used in the experiment. Although details followed the instructions of the kit manufacturer, an HDAC-containing HeLa cell (human uterine cervical cancer cell line) nuclear fraction was added to an acetylation substrate and incubated at 37° C. for 1 hour in the presence of various concentrations of the synthesized compounds or trichostatin A (hereinafter referred to as TSA) used as a positive control, followed by addition of the developer included in the kit to stop the HDAC-catalyzed reaction. Then, the samples were transferred to a 96-well assay plate and measured with ARVO EX (Perkin Elmer) for emission at 460 nm from the reaction product upon excitation at 360 nm.

[2] = system: HeLa (human uterine cervical cancer cell line); experiment: Cell proliferation assay (WST-8) on HeLa cells; type: cell-based; settings: for suppression of HeLa cell proliferation: 72 hours, various concentrations
Method: (§1) Next, the synthesized compounds were verified by WST-8 assay for their ability to suppress cancer cell proliferation.
(§2) Cell lines of HeLa (human uterine cervical cancer cell line), LOVO, RKO and SW480 (each of which was a human large bowel cancer cell line) were each cultured at 37° C. under 5% carbon dioxide conditions using Dulbecco's modified Eagle's medium (DMEM, Nacalai Tesque, Inc., Japan) supplemented with 10% fetal bovine serum (FBS: JRH bioscience, USA), antibiotics (50 U/ml penicillin and 50 μg/ml streptomycin) and 1 mM sodium pyruvate. Single-layered cells grown to 80-90% confluency on 10 cm cell culture dishes were washed with D-PBS(−) (Nacalai Tesque, Inc., Japan) and then released from the dishes by being treated with a phenol red-containing 2.5 g/L-Trypsine/1 mmol/L EDTA solution (Nacalai Tesque, Inc., Japan). The released cells were adjusted and maintained in fresh medium.
(§3) Each cell line seeded at 3×10^3 cells/well in a MICROTEST tissue culture plate (96 well, FALCON) was cultured at 37° C. under 5% carbon dioxide conditions for 24 hours, and then cultured in the presence of various concentrations of PI polyamide for an additional 72 hours. After completion of the culture, 10 μl of viable cell counting reagent SF (Nacalai Tesque, Inc., Japan) was added to each well and the absorbance at 450 nm was measured by ARVO EX (PerkinElmer). During the period from reagent addition until assay, incubation was continued at 37° C. in the presence of 5% CO2 until the absorbance reached about 1.2 to 2.0 in the control sample where only 50% DMSO was added to the cells.

[3] = system: acetylation of histone H3 lysine 9 in the p16 genomic region; experiment: Genomic region-specific acetylation analysis (ChIP, anti-histone H3K9 acetyl antibody), p16 genomic region; type: cell-based, human; settings: HeLa cells, 150 nM, 7 days; FIG. 10
Method: In a 10% fetal bovine serum-containing DMEM medium prepared to contain the synthesized compound (SAHA+p16 PIP or SAHA+non-targeting PIP) or SAHA at a final concentration of 150 nM, HeLa cells were cultured at 37° C. in the presence of 5% CO2 for 7 days. After culture, 5×10^6 to 1×10^7 confluent cells were harvested in 100 mm diameter cell culture dishes (Corning 430167) and then subjected to chromatin immunoprecipitation assay with a MILIPORE 17-295 Chromatin Immunoprecipitation (ChIP) assay kit.
The detailed procedures used are as follows. To the harvested cells cultured for 7 days, formalin was added at a final concentration of 1% and incubated at 37° C. for 10 minutes to fix the cells, whereby proteins and DNAs were crosslinked within the cells. Then, glycine was added at a final concentration of 0.25 M and the supernatant was removed, followed by washing the cell layer. Then, the cell layer was treated with 220 μl lysis buffer and the cell lysate was collected with a scraper. […] Real-time RT-PCR.” More specifically, the purified DNA was quantitatively analyzed with SYBR premix EX Taq (TAKARA BIO, Shiga, Japan) in a Thermal Cycler Dice Real-time System TP-800 (TAKARA BIO, Shiga, Japan). […]

[4] = system: RKO (human large bowel cancer cell line); experiment: Cell proliferation assay (WST-8) on RKO cells; type: cell-based
Method: as §1, §2, §3

CN(C)CCCNC(=O)CCNC(=O)c1cc(NC(=O)c2nc(NC(=O)c3nc(NC(=O)CCNC(=O)c4cc(NC(=O)c5nc(NC(=O)CCCNC(=O)c6cc(NC(=O)c7nc(NC(=O)CCNC(=O)c8cc(NC(=O)c9cc(NC(=O)c%10nc(NC(=O)CCNC(=O)CCNC(=O)c%11ccc(NC(=O)CCCCCCC(=O)NO)cc%11)cn%10C)cn9C)cn8C)cn7C)cn6C)cn5C)cn4C)cn3C)cn2C)cn1C [SAHA+p16 PIP, SAHA-ββImPyPyβImPyγImPyβImImPyβDp]
anti-HDAC activity [1]: confirmed to have anti-HDAC activity
suppression of HeLa cell proliferation ([2]; WST-8, FIG. 3, FIG. 4): high antitumor effect
suppression of HeLa cell proliferation ([2]; WST-8, FIG. 3, FIG. 4, listed as p16 PIP attached to the SAHA derivative): proliferation inhibition; also recorded: inhibit proliferation
ability to suppress proliferation, compared among the 4 cancer cell lines (HeLa) ([2]; FIG. 4): high
acetylation of histone H3 lysine 9 in the p16 genomic region [3]: enhanced acetylation
enhancement of histone H3 lysine 9 acetylation in the p16 genomic region compared to SAHA alone or SAHA+non-targeting PIP [3]: about 2 fold
suppression of RKO cell proliferation at 100 nM ([4]; 100 nM, 72 hours, FIG. 4): not suppressed
inhibition of RKO cell proliferation ([4]; 72 hours, WST-8, FIG. 4): inhibit proliferation
ability to suppress proliferation, compared among the 4 cancer cell lines (RKO) ([4]; FIG. 4, listed as p16 PIP attached to the SAHA derivative): high and lowest
